Results: US20210015942A1, “ANTIBODY PROTAC CONJUGATES” (Development Center for Biotechnology, priority 2018, published 2021)

Legend:
[1] = biological target: BRD4 (Homo sapiens, UniProt O60885); details: BT-474 cells (HER2-positive), 24 hours treatment, various concentrations up to 1 μM, western blot
[2] = test system: BRD2, BRD3, and BRD4; details: read-out: EC50, inhibitor of BRD2, BRD3, and BRD4; cited from earlier work

| Compound | BRD4 protein degradation [1] | EC50 [2] |
| --- | --- | --- |
| Cc1sc2c(c1C)C(c1ccc(Cl)cc1)=N[C@@H](CC(=O)Nc1ccc(OCCOCCNCCOCCNc3cccc4c3C(=O)N(C3CCC(=O)NC3=O)C4=O)cc1)c1nnc(C)n1-2 (stereo partly drawn) [Compound 5] | as effective as ARV-825 |  |
| Cc1sc2c(c1C)C(c1ccc(Cl)cc1)=N[C@@H](CC(=O)Nc1ccc(O)cc1)c1nnc(C)n1-2 [OTX015] |  | 10 to 19 nM |
| Cc1sc2c(c1C)C(c1ccc(Cl)cc1)=N[C@@H](CC(=O)Nc1ccc(OCCOCCN(CCOCCNc3cccc4c3C(=O)N(C3CCC(=O)NC3=O)C4=O)C(=O)OCc3ccc(NC(=O)[C@H](CCCNC(N)=O)NC(=O)[C@@H](NC(=O)CCCCCN4C(=O)C=CC4=O)C(C)C)cc3)cc1)c1nnc(C)n1-2 (stereo partly drawn) [Compound 7] | cannot degrade BRD4 protein |  |
